Measured values reported in the supplement of paper PMC10307832.

Columns and labels:
Experiment in all cases: relative viability (nuclei count vs DMSO), 5 days (fraction); higher = more cells survive
[1] = compound: CC1=C(C(=NN1)C)CC2=C(C3=C(S2)N(C(=O)N(C3=O)C)CC(C)C)C(=O)N4C[C@@H](CO4)O + CS(=O)(=O)CCNCc1ccc(-c2ccc3ncnc(Nc4ccc(OCc5cccc(F)c5)c(Cl)c4)c3c2)o1 [Lapatinib] (partner 2 µM)
Outline: (§1)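 Lung cancer cell lines were seeded in 1536-well plates and dosed by pin tool the next day, with either a single drug or a fixed anchor-drug dose combined with five library-drug doses (not always all listed) spaced in √10 steps. Five days later, one step fixed the cells and stained their nuclei (final 0.05% Triton X-100, 1% formaldehyde, 1 ug/ml Hoechst), and nuclei were counted on 4× images. Relative viability is the nuclei count in treated wells divided by the count in vehicle wells, and each value is the median of duplicate plates.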

IDH-C35 + Tozasertib = compound: Cc1ccccc1C(C(=O)NC1CCCCC1)N(C(=O)Cn1ccnc1C)c1cccc(F)c1 [IDH-C35] + Cc1cc(Nc2cc(N3CCN(C)CC3)nc(Sc3ccc(NC(=O)C4CC4)cc3)n2)n[nH]1 [Tozasertib] (partner 0.1 µM)
Outline: as §1

[2] = compound: CC1=C(C(=NN1)C)CC2=C(C3=C(S2)N(C(=O)N(C3=O)C)CC(C)C)C(=O)N4C[C@@H](CO4)O + O=C(c1cc(Cc2n[nH]c(=O)c3ccccc23)ccc1F)N1CCN(C(=O)C2CC2)CC1 [Olaparib] (partner 8 µM)
Outline: as §1

IDH-C35 + Decitabine = compound: Cc1ccccc1C(C(=O)NC1CCCCC1)N(C(=O)Cn1ccnc1C)c1cccc(F)c1 [IDH-C35] + Nc1ncn([C@H]2C[C@H](O)[C@@H](CO)O2)c(=O)n1 [Decitabine] (partner 2 µM)
Outline: as §1

Cell Line | relative viability ([1]; first compound 0.0025 µM) | relative viability ([1]; first compound 0.007906 µM) | relative viability ([1]; first compound 0.025 µM) | relative viability ([1]; first compound 0.07906 µM) | relative viability ([1]; first compound 0.25 µM) | relative viability (IDH-C35 + Tozasertib; first compound 0.08 µM) | relative viability (IDH-C35 + Tozasertib; first compound 0.253 µM) | relative viability (IDH-C35 + Tozasertib; first compound 0.8 µM) | relative viability (IDH-C35 + Tozasertib; first compound 2.53 µM) | relative viability (IDH-C35 + Tozasertib; first compound 8 µM) | relative viability ([2]; first compound 0.0025 µM) | relative viability ([2]; first compound 0.007906 µM) | relative viability ([2]; first compound 0.025 µM) | relative viability ([2]; first compound 0.07906 µM) | relative viability ([2]; first compound 0.25 µM) | relative viability (IDH-C35 + Decitabine; first compound 0.08 µM) | relative viability (IDH-C35 + Decitabine; first compound 0.253 µM) | relative viability (IDH-C35 + Decitabine; first compound 0.8 µM) | relative viability (IDH-C35 + Decitabine; first compound 2.53 µM) | relative viability (IDH-C35 + Decitabine; first compound 8 µM)
NCI-H2009 | 1.12 | 1.48 | 0.963 | 1.04 | 1.26 | 0.69 | 0.72 | 0.728 | 0.735 | 0.692 | 0.704 | 0.682 | 0.649 | 0.711 | 0.721 | 0.354 | 0.408 | 0.387 | 0.321 | 0.372
NCI-H2023 | 1.1 | 0.965 | 0.903 | 1.03 | 0.861 | 0.352 | 0.343 | 0.355 | 0.297 | 0.248 | 0.47 | 0.496 | 0.449 | 0.435 | 0.51 | 0.231 | 0.22 | 0.259 | 0.233 | 0.265
NCI-H2085 | 0.706 | 0.767 | 0.598 | 0.72 | 0.595 | 0.793 | 0.845 | 0.751 | 0.793 | 0.718 | 0.736 | 0.686 | 0.704 | 0.72 | 0.752 | 0.543 | 0.549 | 0.554 | 0.569 | 0.465
NCI-H2087 | 1.11 | 1.15 | 1.09 | 0.939 | 1.23 | 0.196 | 0.23 | 0.279 |  | 0.264 | 0.67 | 0.661 | 0.598 | 0.727 | 0.701 | 0.284 | 0.25 | 0.274 | 0.302 | 0.254
NCI-H2126 | 0.816 | 0.739 | 0.78 | 0.741 | 0.739 | 0.81 | 0.812 | 0.865 | 0.824 | 0.884 | 0.962 | 0.951 | 0.874 | 0.865 | 0.914 | 0.573 | 0.602 | 0.592 | 0.526 | 0.559
NCI-H2170 | 0.282 | 0.279 | 0.276 | 0.273 | 0.306 | 0.781 | 0.724 | 0.678 | 0.728 | 0.693 | 0.582 | 0.636 | 0.676 | 0.597 | 0.666 | 0.428 | 0.451 | 0.482 | 0.507 | 0.457
NCI-H2347 | 0.993 | 0.956 | 0.86 | 0.964 | 1.09 | 0.476 | 0.599 | 0.497 | 0.657 | 0.418 | 0.574 | 0.624 | 0.468 | 0.508 | 0.587 | 0.647 | 0.651 | 0.661 | 0.599 | 0.654
NCI-H2405 | 1.26 | 1.1 |  | 1.18 | 1.12 | 0.735 | 0.776 | 0.758 | 0.716 | 0.689 | 0.876 | 0.806 | 0.885 | 0.749 | 0.875 | 0.701 | 0.751 | 0.652 | 0.775 | 0.668
